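In this assay, cells in 96-well plates receive the compound at five concentrations for 48 hours. Endpoints are linearly interpolated between the surrounding concentrations. TGI: concentration producing complete growth inhibition.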
Experiments:
Test in all cases: NCI anticancer screen, dose series, 48 h
T-47D breast = system: T-47D breast
OVCAR-8 ovarian = system: OVCAR-8 ovarian
TK-10 renal = system: TK-10 renal
OVCAR-5 ovarian = system: OVCAR-5 ovarian
HOP-92 NSCLC = system: HOP-92 NSCLC
SN12C renal = system: SN12C renal
NCI-H23 lung = system: NCI-H23 lung
HOP-62 NSCLC = system: HOP-62 NSCLC
KM12 colon = system: KM12 colon
OVCAR-3 ovarian = system: OVCAR-3 ovarian
U251 CNS = system: U251 CNS
UACC-257 melanoma = system: UACC-257 melanoma
EKVX NSCLC = system: EKVX NSCLC
DU-145 prostate = system: DU-145 prostate
HCT-15 colon = system: HCT-15 colon
SK-MEL-28 melanoma = system: SK-MEL-28 melanoma
SF-295 CNS = system: SF-295 CNS
MDA-N = system: MDA-N
NCI-H460 lung = system: NCI-H460 lung
SF-268 CNS = system: SF-268 CNS
M14 melanoma = system: M14 melanoma
NCI-H522 lung = system: NCI-H522 lung
ACHN renal = system: ACHN renal
NCI-H226 lung = system: NCI-H226 lung
PC-3 prostate = system: PC-3 prostate
BT-549 breast = system: BT-549 breast
COLO 205 colon = system: COLO 205 colon
786-0 renal = system: 786-0 renal
K-562 leukemia = system: K-562 leukemia
NCI/ADR-RES ovarian = system: NCI/ADR-RES ovarian
OVCAR-4 ovarian = system: OVCAR-4 ovarian
MDA-MB-231 breast = system: MDA-MB-231 breast
HL-60(TB) leukemia = system: HL-60(TB) leukemia
SW-620 colon = system: SW-620 colon
SR leukemia = system: SR leukemia
LOX IMVI melanoma = system: LOX IMVI melanoma
MALME-3M melanoma = system: MALME-3M melanoma
MCF7 breast = system: MCF7 breast
HT29 colon = system: HT29 colon
CCRF-CEM leukemia = system: CCRF-CEM leukemia
SNB-75 CNS = system: SNB-75 CNS
UO-31 renal = system: UO-31 renal
SK-OV-3 ovarian = system: SK-OV-3 ovarian
HCT-116 colon = system: HCT-116 colon
A498 renal = system: A498 renal
UACC-62 melanoma = system: UACC-62 melanoma
CAKI-1 renal = system: CAKI-1 renal
RXF 393 renal = system: RXF 393 renal
A549 NSCLC = system: A549 NSCLC
SNB-19 CNS = system: SNB-19 CNS
HCC-2998 colon = system: HCC-2998 colon
IGROV1 ovarian = system: IGROV1 ovarian
MDA-MB-435 = system: MDA-MB-435
MOLT-4 leukemia = system: MOLT-4 leukemia
SF-539 CNS = system: SF-539 CNS
HS 578T breast = system: HS 578T breast
SK-MEL-5 melanoma = system: SK-MEL-5 melanoma
RPMI-8226 leukemia = system: RPMI-8226 leukemia

Measured: TGI

COc1ccc(C(O)c2ccc3c(c2)OCO3)cc1 (centres undefined)
> 100 µM: T-47D breast | OVCAR-8 ovarian | TK-10 renal | OVCAR-5 ovarian | HOP-92 NSCLC | SN12C renal | NCI-H23 lung | HOP-62 NSCLC | KM12 colon | OVCAR-3 ovarian | U251 CNS | UACC-257 melanoma | EKVX NSCLC | DU-145 prostate | HCT-15 colon | SK-MEL-28 melanoma | SF-295 CNS | MDA-N | NCI-H460 lung | SF-268 CNS | M14 melanoma | NCI-H522 lung | ACHN renal | NCI-H226 lung | PC-3 prostate | BT-549 breast | COLO 205 colon | 786-0 renal | K-562 leukemia | NCI/ADR-RES ovarian | OVCAR-4 ovarian | MDA-MB-231 breast | HL-60(TB) leukemia | SW-620 colon | SR leukemia | LOX IMVI melanoma | MALME-3M melanoma | MCF7 breast | HT29 colon | CCRF-CEM leukemia | SNB-75 CNS | UO-31 renal | SK-OV-3 ovarian | HCT-116 colon | A498 renal | UACC-62 melanoma | CAKI-1 renal | RXF 393 renal | A549 NSCLC | SNB-19 CNS | HCC-2998 colon | IGROV1 ovarian | MDA-MB-435 | MOLT-4 leukemia | SF-539 CNS

CNC(=O)CCC(NC(C)=O)C(=O)NC(Cc1ccc(NC(=O)CCCCC(C)=O)cc1)C(=O)NC(CCC(=O)NC)C(=O)NC (centres undefined)
> 100 µM: T-47D breast | OVCAR-8 ovarian | HS 578T breast | TK-10 renal | OVCAR-5 ovarian | HOP-92 NSCLC | SK-MEL-5 melanoma | SN12C renal | NCI-H23 lung | HOP-62 NSCLC | KM12 colon | OVCAR-3 ovarian | U251 CNS | EKVX NSCLC | DU-145 prostate | HCT-15 colon | SK-MEL-28 melanoma | SF-295 CNS | MDA-N | NCI-H460 lung | SF-268 CNS | M14 melanoma | NCI-H522 lung | ACHN renal | NCI-H226 lung | PC-3 prostate | BT-549 breast | COLO 205 colon | 786-0 renal | K-562 leukemia | NCI/ADR-RES ovarian | OVCAR-4 ovarian | MDA-MB-231 breast | HL-60(TB) leukemia | SW-620 colon | LOX IMVI melanoma | MALME-3M melanoma | MCF7 breast | HT29 colon | RPMI-8226 leukemia | UO-31 renal | SK-OV-3 ovarian | HCT-116 colon | A498 renal | UACC-62 melanoma | CAKI-1 renal | RXF 393 renal | A549 NSCLC | SNB-19 CNS | HCC-2998 colon | IGROV1 ovarian | MDA-MB-435 | MOLT-4 leukemia | SF-539 CNS

From PubChem BioAssay (NCI)
